Assay results from patent EP4703354A1, “COMPOUND AS CCR6 ANTAGONIST, AND PHARMACEUTICAL COMPOSITION AND USE THEREOF” (Wuhan Createrna Science and Technology Co.,Ltd., priority 2023, dated 2024).
Where two headings read alike, the source gives them in different places.

Columns and labels:
human CCR6 = molecular target: T1, human CCR6 (Homo sapiens, UniProt P51684); assay: human CCR6 calcium flux activity (FLIPR, HEK293 cells stably expressing human CCR6, CCL20 stimulation); type: cell-based; conditions: HEK293 cells stably expressing human CCR6, EC80 human MIP-3 alpha/CCL20; read-out: CCR6 inhibitory activity, IC50
T1 construct: expressed in transfected cells; host or cells: HEK293
T1 sequence (P51684 1-374): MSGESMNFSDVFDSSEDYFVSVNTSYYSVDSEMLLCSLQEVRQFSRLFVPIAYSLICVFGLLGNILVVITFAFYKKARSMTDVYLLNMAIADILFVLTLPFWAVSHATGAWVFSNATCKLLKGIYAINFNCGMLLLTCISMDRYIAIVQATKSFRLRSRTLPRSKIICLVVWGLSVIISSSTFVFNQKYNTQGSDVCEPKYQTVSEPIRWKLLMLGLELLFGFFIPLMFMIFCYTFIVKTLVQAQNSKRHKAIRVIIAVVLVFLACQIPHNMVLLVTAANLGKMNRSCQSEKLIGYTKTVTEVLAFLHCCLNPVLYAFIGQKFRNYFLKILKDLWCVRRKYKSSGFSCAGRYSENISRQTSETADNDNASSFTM
Method: The activity of the compounds was evaluated using HEK293 cells stably expressing human CCR6 via the FLIPR platform. A 384-well black cell culture plate (Greiner, 781946) was used, with a seeding density of 20,000 cells/well, and incubated overnight at 37°C in a 5% CO2 incubator. The culture medium in the cell plate wells was removed, and 20 µL of Fluo-4 Direct™ Calcium Assay Buffer (Invitrogen, F10471, Component C), 20 µL of 2× Fluo-4 Direct™ Calcium Assay Reagent (Invitrogen, F10471, Component A) working solution, and 10 µL of 6× test compound working solution were sequentially added to each well. The cell plate was incubated in a 37 °C, 5% CO2 incubator for 50 min, followed by a 10 min incubation at room temperature. Additionally, a 6×EC80 human MIP-3 alpha/CCL20 (MCE, HY-P7262) working solution was prepared. After the incubation was completed, 10 µL/well of the 6×EC80 human MIP-3 alpha/CCL20 working solution was transferred to the cell plate using a FLIPR instrument, and the fluorescence signal changes at an excitation wavelength of 494 nm and an emission wavelength of 516 nm were recorded over 90 seconds. The difference between the maximum fluorescence signal (RFUMax) and the minimum fluorescence signal (RFUMin) was used as the output signal. The compound inhibition rate and the log value of the compound concentration were calculated, and a four-parameter fitting analysis was performed using GraphPad Prism 8 software to obtain the IC50 value of the test compound.

[1] = in vivo pharmacokinetic study in SD rats; conditions: rat; for bioavailability: 1 mg/kg PO vs 1 mg/kg IV, read-out: Oral bioavailability F (%); for AUC(0-t) / Cmax / half-life: 1 mg/kg
Method: 2.2.1 Rats: SD rats, SPF grade, 6 rats per compound, male, body weight range 180-200 g.
2.2.2 Housing conditions: The animals were housed in an SPF-grade animal facility with free access to food and water, three per cage, under a 12/12-hour light/dark cycle (7:00 am/7:00 pm), at a temperature of 23 ± 3°C.
2.2.3 Drug preparation: The compound was precisely weighed, mixed with the required volume of 1% Tween 80, vortexed for 2 min, and then sonicated for 5 min until no visible particles remained. The mixture was subsequently stirred on a magnetic stirrer for 20 min, and the middle layer of the drug solution was collected for administration. For the IV group, the compound was accurately weighed, dissolved in the required volume of 50% PEG400, sonicated for 10 min, and vortexed until clear before administration.
The rats were randomly divided into 2 groups based on body weight, with 3 rats per compound per group. Group 1 was administered a single oral gavage dose (fasted), and Group 2 was administered a single tail vein bolus injection. Blood collection time points: for the po group, blood was collected at 0.167 h, 0.5 h, 1 h, 2 h, 3 h, 4 h, 6 h, and 8 h; for the iv group, blood was collected at 0.033 h, 0.167 h, 0.5 h, 1 h, 2 h, 4 h, 6 h, and 8 h.
After administration to the rats, blood was collected from the orbital venous plexus according to the sampling time points. Approximately 0.2-0.3 mL of blood was collected at each time point into anticoagulant EP tubes (containing 4 µL of EDTA-K2, 375 mg/mL, dried at 50°C). The tubes were slowly inverted up and down three times and stored in an ice box (for no more than 30 minutes). Centrifugation was performed at 4°C at 3000 × g for 10 minutes, and the supernatant was transferred to labeled EP tubes for bioanalytical testing. If testing could not be performed on the same day, the samples were stored at -80°C until analysis (care was taken to avoid multiple freeze/thaw cycles).
The data were analyzed using WinNonlin via a non-compartmental model to obtain PK parameters (Cmax, AUC0-last, AUCinf, T1/2, etc., selected based on different routes of administration). For specific data, please refer to Table 2. Table 2. PK experimental results of compounds in SD rats

IC50 (human CCR6) [nM] | Compound | also measured
183 | CN(C)C(=O)c1nccc(Nc2c(N[C@@H](C#Cc3ccccn3)C3(C)CCCC3)c(=O)c2=O)c1O [compound 118, (R)-3-hydroxy-N,N-dimethyl-4-((2-((1-(1-methylcyclopentyl)-3-(pyridin-2-yl)prop-2-yn-1-yl)amino)-3,4-dioxocyclobut-1-en-1-yl)amino)picolinamide] | –
13.6 | Cc1cccnc1[C@H](Nc1c(Nc2ccnc(C(=O)N3CCOCC3)c2O)c(=O)c1=O)C1(C)CCCC1 [compound 059, (R)-3-((3-hydroxy-2-(morpholine-4-carbonyl)pyridin-4-yl)amino)-4-(((1-methylcyclopentyl)(3-methylpyridin-2-yl)methyl)amino)cyclobut-3-ene-1,2-dione] | –
53.6 | CN(C)C(=O)c1nccc(Nc2c(N[C@@H](C#CC3CCC3)[C@@]3(C)CC(F)(F)CO3)c(=O)c2=O)c1O (single isomer, unassigned) [110B] | –
887 | CN(C)C(=O)c1nccc(Nc2c(NC(C(=O)C3CC3)C3(C)CCCC3)c(=O)c2=O)c1O (centres unmarked) [compound 034, 4-((2-((2-cyclopropyl-1-(1-methylcyclopentyl)-2-oxoethyl)amino)-3,4-dioxocyclobut-1-en-1-yl)amino)-3-hydroxy-N,N-dimethylpicolinamide] | –
9 | CN(C)C(=O)c1nccc(Nc2c(N[C@@H](c3cc(Cl)ccn3)C3(C)CCCC3)c(=O)c2=O)c1O [compound 012, (R)-4-((2-(((4-chloropyridin-2-yl)(1-methylcyclopentyl)methyl)amino)-3,4-dioxocyclobut-1-en-1-yl)amino)-3-hydroxy-N,N-dimethylpicolinamide] | –
95.8 | CN(C)C(=O)c1nccc(Nc2c(N[C@@H](c3ccccc3)C3(C)CCCC3)c(=O)c2=O)c1O [compound 037, (R)-3-hydroxy-N,N-dimethyl-4-((2-(((1-methylcyclopentyl)(phenyl)methyl)amino)-3,4-dioxocyclobut-1-en-1-yl)amino)picolinamide] | –
22.5 | CN(C)C(=O)c1nccc(Nc2c(N[C@@H](c3ncc(F)cc3Cl)C3(C)CCCC3)c(=O)c2=O)c1O [compound 011, (R)-4-((2-(((3-chloro-5-fluoropyridin-2-yl)(1-methylcyclopentyl)methyl)amino)-3,4-dioxocyclobut-1-en-1-yl)amino)-3-hydroxy-N,N-dimethylpicolinamide] | –
0.7 | CC(C)N(C)C(=O)c1nccc(Nc2c(N[C@@H](c3ncccc3F)C3(C)CCCC3)c(=O)c2=O)c1O [compound 026, (R)-4-((2-(((3-fluoropyridin-2-yl)(1-methylcyclopentyl)methyl)amino)-3,4-dioxocyclobut-1-en-1-yl)amino)-3-hydroxy-N-isopropyl-N-methylpicolinamide] | –
151 | CN(C)C(=O)c1nccc(Nc2c(N[C@@H](c3cccc(C(F)(F)F)n3)C3(C)CCCC3)c(=O)c2=O)c1O [compound 008, (R)-3-hydroxy-N,N-dimethyl-4-((2-(((1-methylcyclopentyl)(6-(trifluoromethyl)pyridin-2-yl)methyl)amino)-3,4-dioxocyclobut-1-en-1-yl)amino)picolinamide] | –
73.6 | Cc1cccnc1[C@H](Nc1c(Nc2ccc(C)c(C(=O)N(C)C)c2O)c(=O)c1=O)C1(C)CCCC1 [compound 103, (R)-2-hydroxy-N,N,6-trimethyl-3-((2-(((1-methylcyclopentyl)(3-methylpyridin-2-yl)methyl)amino)-3,4-dioxocyclobut-1-en-1-yl)amino)benzamide] | –
2.4 | CN(C)C(=O)c1nccc(Nc2c(N[C@@H](c3ncccc3F)C3(C)CCCC3)c(=O)c2=O)c1O [compound 001, (R)-4-((2-(((3-fluoropyridin-2-yl)(1-methylcyclopentyl)methyl)amino)-3,4-dioxocyclobut-1-en-1-yl)amino)-3-hydroxy-N,N-dimethylpicolinamide] | –
– | Cc1cccnc1C(Nc1c(Nc2ccnc(C(=O)N(C)C)c2O)c(=O)c1=O)C1(C)CCC(F)(F)C1 (single isomer, unassigned) [125B] | bioavailability ([1]; in vivo): 136%; AUC(0-t) ([1]; in vivo, IV): 1500 ng·h/mL; Cmax ([1]; in vivo, IV): 3050 ng/mL; AUC(0-t) ([1]; in vivo, PO): 2040 ng·h/mL; Cmax ([1]; in vivo, PO): 822 ng/mL; half-life ([1]; in vivo, PO): 1.37 h
820 | CN(C)C(=O)c1nccc(Nc2c(NC(C(=O)C3CCC3)C3(C)CCCC3)c(=O)c2=O)c1O (centres unmarked) [compound 035, 4-((2-((2-cyclobutyl-1-(1-methylcyclopentyl)-2-oxoethyl)amino)-3,4-dioxocyclobut-1-en-1-yl)amino)-3-hydroxy-N,N-dimethylpicolinamide] | –
161 | CN(C)C(=O)c1nccc(Nc2c(N[C@@H](c3ncccc3C(F)F)C3(C)CCCC3)c(=O)c2=O)c1O [compound 015, (R)-4-((2-(((3-(difluoromethyl)pyridin-2-yl)(1-methylcyclopentyl)methyl)amino)-3,4-dioxocyclobut-1-en-1-yl)amino)-3-hydroxy-N,N-dimethylpicolinamide] | –
161 | Cc1c(C(Nc2c(Nc3ccnc(C(=O)N(C)C)c3O)c(=O)c2=O)C2(C)CCCC2)nn2c1CCC2 (centres unmarked) [compound 029, 3-hydroxy-N,N-dimethyl-4-((2-(((3-methyl-5,6-dihydro-4H-pyrrolo[1,2-b]pyrazol-2-yl)(1-methylcyclopentyl)methyl)amino)-3,4-dioxocyclobut-1-en-1-yl)amino)picolinamide] | –
1370 | CN(C)C(=O)c1nccc(Nc2c(NC(c3nn(C)c4c3COC4)C3(C)CCCC3)c(=O)c2=O)c1O (centres unmarked) [compound 027, 3-hydroxy-N,N-dimethyl-4-((2-(((1-methyl-4,6-dihydro-1H-furo[3,4-c]pyrazol-3-yl)(1-methylcyclopentyl)methyl)amino)-3,4-dioxocyclobut-1-en-1-yl)amino)picolinamide] | –
152 | Cc1cnc([C@H](Nc2c(Nc3ccnc(C(=O)N(C)C)c3O)c(=O)c2=O)C2(C)CCCC2)c(C)c1 [compound 061, (R)-4-((2-(((3,5-dimethylpyridin-2-yl)(1-methylcyclopentyl)methyl)amino)-3,4-dioxocyclobut-1-en-1-yl)amino)-3-hydroxy-N,N-dimethylpicolinamide] | –
113 | CC(C)[C@H](Nc1c(Nc2ccnc(C(=O)N(C)C)c2O)c(=O)c1=O)C1(C)CCCC1 [compound 038, (S)-3-hydroxy-N,N-dimethyl-4-((2-((2-methyl-1-(1-methylcyclopentyl)propyl)amino)-3,4-dioxocyclobut-1-en-1-yl)amino)picolinamide] | –
– | Cc1cc(F)cnc1[C@H](Nc1c(Nc2ccnc(C(=O)N(C)C)c2O)c(=O)c1=O)[C@@]1(C)CC(F)(F)CO1 [093B, 4-((2-(((S)-((R)-4,4-difluoro-2-methyltetrahydrofuran-2-yl)(5-fluoro-3-methylpyridin-2-yl)methyl)amino)-3,4-dioxocyclobut-1-en-1-yl)amino)-3-hydroxy-N,N-dimethylpicolinamide] | bioavailability ([1]; male, plasma): 51.6%; AUC(0-t) ([1]; male, plasma, IV): 716 ng·h/mL; Cmax ([1]; male, plasma, IV): 1890 ng/mL; AUC(0-t) ([1]; male, plasma, PO): 370 ng·h/mL; Cmax ([1]; male, plasma, PO): 285 ng/mL; half-life ([1]; male, plasma, PO): 3.83 h
